Data taken from a melting point compilation (Tetko et al.; mined from patent text by program, amines drawn as free bases though some values may be those of a salt).

Row | melting point | Compound
1 | 85 to 88 °C | CCCc1ccc(S(=O)(=O)n2c(CCC(=O)OC)cc3cc(Cl)ccc32)cc1
2 | 77.3 to 78.9 °C | CCOP(=O)(OCC)c1c(C)c2c(c(C)c1-c1c(OC)ccc3ccccc13)COC2
3 | > 300 °C | NS(=O)(=O)c1ccc(NC(=O)c2cc(F)ccc2SSc2ccc(F)cc2C(=O)Nc2ccc(S(N)(=O)=O)cc2)cc1
4 | 179 to 182 °C | CCOC(=O)NC(=O)C1c2ccccc2Sc2ccccc21
5 | 123 to 126 °C | Cc1ccc(N(C)CCC(C)NCC(O)c2ccc(O)c(C(N)=O)c2)cc1 (stereo not given)
6 | 234 to 235 °C | O=C1CCn2c(-c3ccccc3)nc3cc(Cl)cc1c32
7 | > 300 °C | O=C(O)c1nc2cc(-n3ccnc3)c([N+](=O)[O-])cc2[nH]c1=O
8 | 129 to 136 °C | CC(=O)Oc1c(C2(OC(C)=O)C(=O)c3ccccc3C2=O)ccc(Cl)c1Cl
9 | 206 to 208 °C | O=C(O)c1cccc(-c2nc(-c3ccc(C(F)(F)F)cc3)co2)c1
10 | 71 to 72 °C | COC(=O)C#CCCc1c(C)c(OC)c(C)c(C)c1OC
11 | 118 to 121 °C | Nc1cccc(-c2ccc(Cl)nn2)c1
12 | 93 to 95 °C | CCCOc1ccc2c(c1)C(N(C)S(C)(=O)=O)=CC(C)(C)O2
13 | 180 °C | NC(CCNCCC(N)=NO)=NO
14 | 70 to 71.5 °C | CC(C)C1C(=O)N(COC(=O)c2c(Cl)cccc2Cl)S(=O)(=O)N1C (stereo not given)
15 | 162 to 163 °C | CCOCc1nc2c(N)nc3ccccc3c2n1CC1CC(c2ccccc2)N(C)O1 (stereo not given)
16 | 183 to 185 °C | O=C1C2CC(O)CCN2C(=O)N1c1ncc(Cl)cc1F (stereo not given)
17 | 177 to 179 °C | NC(=O)Cn1ccc2ccccc21
18 | 190 to 193 °C | CN1C(=O)[C@@](NC(=O)Nc2cccc(Nc3nnn[nH]3)c2)(C2CCCCC2)N=Cc2ccccc21
19 | 125 to 126 °C | Cc1cnnc2c1C(=O)CC(c1ccsc1)C2 (stereo not given)
20 | 177 to 179 °C | CC(C)NC(=O)c1ccc(-c2ccc3nnn(Cc4ccc5ncccc5c4)c3n2)cc1F
21 | 63 to 64 °C | COc1cc2c(cc1OCc1ccccc1)CCN(C(=O)c1cc(OC)c(OC)c(OC)c1)C2
22 | 149 to 151 °C | COc1cc(/C=C/C=C/CO)ccc1OCc1nc(-c2ccccc2)oc1C
23 | 257 to 259 °C | CC(=O)Nc1cc(-c2ccncc2)cc2nc(-c3ccc(C)o3)nn12

Row | melting point | Compound
24 | 59.9 to 63.9 °C | CCc1nn2ccccc2c1N(CCCF)C(=O)COC
25 | 98 to 100 °C | CCOC(=O)Cc1ccc2c(c1)C(=O)c1ccccc1CS2
26 | 153 to 155 °C | Cn1c(CCN2CCN(c3ccccc3)CC2)nc2c3ccccc3ccc21
27 | 106 to 109 °C | CC=CCn1c(C)c(C)c2cnnc(OCc3ccc(Cl)cc3F)c21
28 | 104 to 105 °C | Nc1ccccc1S(=O)(=O)N1CC=CC1
29 | > 200 °C | CSc1cc2c(cc1C(F)(F)F)N(C(=O)Nc1ccc(C(=O)O)cc1)CC2
30 | 133 to 134 °C | CS(=O)(=O)Nc1cc(-c2ncc(C(F)(F)F)cc2Cl)ccc1Cl
31 | 214 to 219 °C | COCCOc1ccc2c(C3C(=O)Nc4ccc(C#N)cc43)nccc2c1 (stereo not given)
32 | 215 to 217 °C | O=C(OCC1OC(c2ccc(Cl)c(Cc3cc4ccccc4s3)c2)C(OC(=O)c2ccccc2)C(OC(=O)c2ccccc2)C1O)c1ccccc1 (stereo not given)
33 | 130 to 131 °C | CCCCCCCCCCCCCCCCNc1ccc(C(=O)NS(=O)(=O)c2ccc([N+](=O)[O-])cc2)cc1
34 | 205 °C | Cc1ccc2c(c1)C=Cc1cc(C)ccc1C2c1cn(-c2ccnc(NCC(=O)O)n2)c(=O)[nH]c1=S
35 | 63 °C | CCOC(=O)c1cc2n(n1)CCOC2
36 | 164 to 165 °C | COc1ccc(/C(=C\C=C\C(=O)NCCCCc2cccnc2)c2ccccc2OC)cc1
37 | 229 to 230 °C | CCCCn1c(N)c(N=O)c(=O)n(CC2CCCCC2)c1=O
38 | 99 to 100 °C | C#Cc1ccc(=O)oc1
39 | 140 to 145 °C | Cc1cn(-c2ccc(C(=O)N3Cc4cccn4Cc4ccccc43)cc2)cn1
40 | > 250 °C | CCOCc1nc2c(c(C)c(C)n3nnnc23)n1CCNC(=O)Nc1ccccc1
41 | 119 to 121 °C | COCC(=O)OCc1c(C)n(Cc2ccccc2)c2c(OCc3ccc(F)cc3)nncc12
42 | 172 to 174 °C | COc1ccc2oc(C)c(Cc3cccc(NS(=O)(=O)C(F)(F)F)c3)c(=O)c2c1
43 | 176 °C | O=S1(=O)c2cccc3cccc(c23)N1CCN1CCC(CC2=Cc3ccccc3C2)CC1
44 | 77.6 to 78.4 °C | CC(C)CN1CCN(C(=O)c2ccc(OCc3ccccc3)cc2)CC1
45 | 202 to 203 °C | O=C1NC(=O)C(Cc2ccc(OCCNc3nc4ccccc4o3)cc2)S1 (stereo not given)
46 | 209 to 210 °C | CC(=O)NCCC(=O)Nc1cccc(-c2cc(-c3ccc(Cl)cc3O)nc(NC(=O)c3cccs3)c2C#N)c1

Row | melting point | Compound
47 | 186 to 187 °C | COC(=O)c1ccc(-c2nc(-c3ccc(Cl)cc3)cs2)cc1
48 | 142 to 143 °C | Cc1cc(-c2cc(F)c(F)cc2-c2ccc(S(N)(=O)=O)cc2)ccc1Cl
49 | 324 to 326 °C | Cc1cnc2[nH]cc(/C=C3\N=C(N4CCCCCC4)NC3=O)c2c1
50 | 239 to 241 °C | CC1CC(=Cc2ccccc2)c2nc3cc(N)ccc3c(=O)n21 (stereo not given)
51 | 156 to 157 °C | CC(=O)Oc1cccc(C(Br)C(Br)c2ccccc2)c1 (stereo not given)
52 | 185 to 186 °C | CCC1CS(=O)(=O)c2ccccc2C2(c3ccccc3)OC12 (stereo not given)
53 | 97.6 to 98.6 °C | CCOC(=O)C1=Cc2cc(Cl)c(F)cc2OC1C(F)(F)F (stereo not given)
54 | 174 to 177 °C | N#Cc1cc(-c2ccoc2)c2ccc(OCc3cccc(-c4ccc(Cl)cc4)n3)cc2c1
55 | 180 to 182 °C | Cc1nc(N)c2nc(C)n(CCOCCNC(=O)C(C)C)c2c1C
56 | 120 °C | COC(=O)[C@H](O)[C@@H](NC(=O)OC(C)(C)C)c1ccc(N(C)C)cc1
57 | 120 to 122 °C | CCOC(=O)c1c[nH]cc1-c1cccc(F)c1
58 | 108 to 110 °C | COc1ccc(Cn2c(=O)n([C@H]3CC[C@H](O)CC3)c3ccc(C(F)(F)F)cc32)cc1OC
59 | 65 to 67 °C | CNCc1ccc([C@H]2CC[C@H](OC(=O)Cc3ccc(Cl)cc3)CC2)cc1
60 | > 250 °C | COC(=O)c1cccc2[nH]c(=O)c(-c3csc(-c4ccncc4)n3)cc12
61 | > 300 °C | COc1ccccc1C=Cc1nc2c([nH]1)c(=O)n(C)c(=O)n2C
62 | 76 to 77 °C | CCCc1cc(Cl)c2oc(Cc3ccc(Cl)cc3)c(C)c2c1O
63 | 114 to 115 °C | COc1cccc(CN2CCCc3cc(O)c(OC)cc3C2)c1
64 | 138 °C | CCc1nccn1CCc1ccc(Nc2ncc(C#N)c(-c3ccc(C(C)(C)N)cc3)n2)cc1
65 | 166 °C | Cc1nc2n(C)c(C)cn2c(=O)c1CCN1CCC(n2ccc3ccccc32)CC1
66 | 146 °C | COC(=O)c1ccc([C@H]2CCN(C(=O)OC(C)(C)C)C[C@@H]2O)cc1 (racemic)
67 | 70 °C | Nc1ncc(F)cc1I
68 | 85 to 132 °C | N=C(N)Nc1ncc(CSCCNC2=NS(=O)N=C2N)s1 (stereo not given)

Row | Compound | melting point
69 | CN1Cc2c(C(N)=NO)ncn2-c2cccc(Br)c2C1=O | 265 to 266 °C
70 | Cc1nc2ccc3c(c2nc1C)OC(CN1CC=C(c2c[nH]c4ccc(F)cc24)CC1)CO3 (stereo not given) | 138 to 141 °C
